In patent publication US9957278B2, “Furopyridine compounds for the treatment of hepatitis C” (BRISTOL-MYERS SQUIBB COMPANY, priority 2014, dated 2018):
Where two headings read alike, the source gives them in different places.

Columns and labels:
[1] = test system: genotype 1b (Con-1) HCV replicon; experiment: HCV Replicon Luciferase Assay (genotype 1b); assay type: cell-based; details: Hepatitis C virus, 72 h, genotype 1b replicon in Huh-7 cells, Renilla luciferase, 3 days incubation
Method: The cell lines used to evaluate compounds consist of a human hepatocyte derived cell line (Huh-7) that constitutively expresses a genotype 1b (Con-1) HCV replicon or a genotype 1b (Con-1) HCV replicon with an asparagine replacing the cysteine at amino acid 316, or a genotype 2a (JFH-1) replicon, containing a Renilla luciferase reporter gene. These cells were maintained in Dulbecco's modified Eagle medium (DMEM) containing 10% FBS, 100 U/mL penicillin/streptomycin and 1.0 mg/mL G418.
To evaluate compound efficacy, titrated compounds were transferred to sterile 384-well tissue culture treated plates, and the plates were seeded with HCV replicon cells (50 μL at a density of 2.4×10^3 cells/well) in DMEM containing 4% FBS (final DMSO concentration at 0.5%). After 3 days incubation at 37° C., cells were analyzed for Renilla Luciferase activity using the EnduRen substrate (Promega cat #E6485) according to the manufacturer's directions. Briefly, the EnduRen substrate was diluted in DMEM and then added to the plates to a final concentration of 7.5 μM. The plates were incubated for at least 1 h at 37° C. then read on a Viewlux Imager (PerkinElmer) using a luminescence program. The 50% effective concentration (EC50) was calculated using the four-parameter logistic formula noted above.
Compound EC50 data is expressed as A: <100 nM; B=100-1000 nM; C>1000 nM).

HCV = details: cited from earlier work

Question: With `CNC(=O)c1c(-c2ccc(F)cc2)oc2nc(NCC(F)(F)F)c(-c3cccc(C(=O)NC(C)(C)C(=O)OC)c3)cc12` [Compound 30009] as the compound, how does the EC50 ([1]; read-out: EC50 1b (class)) read?
Answer: Its EC50 is under 0.1 µM.

Question: With `CNC(=O)c1c(-c2ccc(F)cc2)oc2nc(NCC(F)(F)F)c(-c3cccc(C(=O)NC(C)(C)CO)c3)cc12` [Compound 30010] as the compound, how does the EC50 ([1]; read-out: EC50 1b (class)) read?
Answer: The EC50 was under 0.1 µM.

Question: With `CNC(=O)c1c(-c2ccc(F)cc2)oc2nc(NCC(F)(F)F)c(-c3cccc(C(=O)NCC(C)(C)C)c3)cc12` [Compound 30011] as the compound, how does the EC50 ([1]; read-out: EC50 1b (class)) read?
Answer: Its EC50 is under 0.1 µM.

Question: What does the source list for `CNC(=O)c1c(-c2ccc(F)cc2)oc2nc(NCC(F)(F)F)c(-c3cccc(C(=O)N[C@@H](CO)c4ccccc4)c3)cc12` [Compound 30012]?
Answer: EC50 ([1]; read-out: EC50 1b (class)): < 0.1 µM; EC50 ([1]; read-out: EC50 (uM) 1b): 0.0239 µM

Question: Which EC50 ([1]; read-out: EC50 1b (class)) does the source give for `CNC(=O)c1c(-c2ccc(F)cc2)oc2nc(NCC(F)(F)F)c(-c3cccc(C(=O)NC(C)(C)C(=O)NC)c3)cc12` [Compound 30013] here?
Answer: The EC50 was under 0.1 µM.

Question: With `CNC(=O)c1c(-c2ccc(F)cc2)oc2nc(NCC(F)(F)F)c(-c3cccc(C(=O)NCC(C)(C)CO)c3)cc12` [Compound 30014] as the compound, how does the EC50 ([1]; read-out: EC50 1b (class)) read?
Answer: Its EC50 is under 0.1 µM.

Question: Which results are given for `CNC(=O)c1c(-c2ccc(F)cc2)oc2nc(NCC(F)(F)F)c(-c3cccc(C(=O)NC(C)(C)c4ccccc4)c3)cc12` [Compound 30015]?
Answer: EC50 ([1]; read-out: EC50 1b (class)): < 0.1 µM; EC50 ([1]; read-out: EC50 (uM) 1b): 0.0067 µM

Question: With `CNC(=O)c1c(-c2ccc(F)cc2)oc2nc(NCC(F)(F)F)c(-c3cccc(C(=O)N[C@H](CO)c4ccccc4)c3)cc12` [Compound 30016] as the compound, how does the EC50 ([1]; read-out: EC50 1b (class)) read?
Answer: The EC50 was under 0.1 µM.

Question: For `CNC(=O)c1c(-c2ccc(F)cc2)oc2nc(NCC(F)(F)F)c(-c3ccc(OC)c(C(=O)NCC(F)(F)C(F)(F)C(F)(F)F)c3)cc12` [Compound 31001], which EC50 ([1]; read-out: EC50 1b (class)) is on record?
Answer: Its EC50 is under 0.1 µM.

Question: What about the EC50 ([1]; read-out: EC50 (uM) 1b) of the same compound?
Answer: Its EC50 is 0.014 µM.

Question: Which EC50 ([1]; read-out: EC50 1b (class)) does the source give for `CNC(=O)c1c(-c2ccc(F)cc2)oc2nc(NCC(F)(F)F)c(-c3ccc(OC)c(C(=O)NC(CF)(CF)CF)c3)cc12` [Compound 31002] here?
Answer: Its EC50 is under 0.1 µM.

Question: What does the source list for `CNC(=O)c1c(-c2ccc(F)cc2)oc2nc(NCC(F)(F)C(F)(F)F)c(-c3cccc(C(=O)NCC(C)(C)C)c3)cc12` [Compound 40001]?
Answer: EC50 ([1]; read-out: EC50 1b (class)): < 0.1 µM; EC50 ([1]; read-out: EC50 (uM) 1b): 0.0982 µM

Question: With `CNC(=O)c1c(-c2ccc(F)cc2)oc2nc(NCC(F)(F)C(F)(F)F)c(-c3cccc(C(=O)NC(C)(C)C)c3)cc12` [Compound 40002] as the compound, how does the EC50 ([1]; read-out: EC50 1b (class)) read?
Answer: Its EC50 is under 0.1 µM.

Question: Which EC50 ([1]; read-out: EC50 1b (class)) does the source give for `[2H]C([2H])([2H])C(NC(=O)c1cccc(-c2cc3c(C(=O)NC)c(-c4ccc(F)cc4)oc3nc2NCC(F)(F)C(F)(F)F)c1)(C([2H])([2H])[2H])C([2H])([2H])[2H]` [Compound 40003] here?
Answer: Its EC50 is 0.1 to 1 µM.

Question: For `CNC(=O)c1c(-c2ccc(F)cc2)oc2nc(NCC(F)(F)C(F)(F)F)c(-c3cccc(C(=O)NC(CF)(CF)CF)c3)cc12` [Compound 40004], which EC50 ([1]; read-out: EC50 1b (class)) is on record?
Answer: Its EC50 is under 0.1 µM.

Question: Which EC50 ([1]; read-out: EC50 1b (class)) does the source give for `C#CC(C)(C)NC(=O)c1cccc(-c2cc3c(C(=O)NC)c(-c4ccc(F)cc4)oc3nc2NCC(F)(F)C(F)(F)F)c1` [Compound 40005] here?
Answer: The EC50 was 0.1 to 1 µM.

Question: With `CNC(=O)c1c(-c2ccc(F)cc2)oc2nc(NCC(F)(F)C(F)(F)F)c(-c3ccc(OC)c(C(=O)NC(C)(C)C)c3)cc12` [Compound 41001] as the compound, how does the EC50 ([1]; read-out: EC50 1b (class)) read?
Answer: The EC50 was under 0.1 µM.

Question: Which EC50 ([1]; read-out: EC50 1b (class)) does the source give for `CNC(=O)c1c(-c2ccc(F)cc2)oc2nc(NCC(F)(F)C(F)(F)F)c(-c3ccc(OC)c(C(=O)NCC(C)(C)C)c3)cc12` [Compound 41002] here?
Answer: The EC50 was under 0.1 µM.

Question: With `CNC(=O)c1c(-c2ccc(F)cc2)oc2nc(NCC(F)(F)C(F)(F)F)c(-c3ccc(OC)c(C(=O)NC(CF)(CF)CF)c3)cc12` [Compound 41003] as the compound, how does the EC50 ([1]; read-out: EC50 1b (class)) read?
Answer: Its EC50 is under 0.1 µM.

Question: What about the EC50 ([1]; read-out: EC50 (uM) 1b) of the same compound?
Answer: The EC50 was 0.0519 µM.

Question: What does the source list for `C#CC(C)(C)NC(=O)c1cc(-c2cc3c(C(=O)NC)c(-c4ccc(F)cc4)oc3nc2NCC(F)(F)C(F)(F)F)ccc1OC` [Compound 41004]?
Answer: EC50 ([1]; read-out: EC50 1b (class)): < 0.1 µM; EC50 ([1]; read-out: EC50 (uM) 1b): 0.0173 µM

Question: Which EC50 ([1]; read-out: EC50 1b (class)) does the source give for `[2H]C([2H])([2H])C(NC(=O)c1cc(-c2cc3c(C(=O)NC)c(-c4ccc(F)cc4)oc3nc2NCC(F)(F)C(F)(F)F)ccc1OC)(C([2H])([2H])[2H])C([2H])([2H])[2H]` [Compound 41005] here?
Answer: The EC50 was under 0.1 µM.

Question: For `CNC(=O)c1c(-c2ccc(F)cc2)oc2nc(NCCO)c(-c3cccc(C(=O)NC(C)(C)C(F)(F)F)c3)cc12` [Compound 42001], which EC50 ([1]; read-out: EC50 1b (class)) is on record?
Answer: The EC50 was under 0.1 µM.

Question: For `CNC(=O)c1c(-c2ccc(F)cc2)oc2nc(NCCO)c(-c3cccc(C(=O)NC(CF)(CF)CF)c3)cc12` [Compound 42002], which EC50 ([1]; read-out: EC50 1b (class)) is on record?
Answer: The EC50 was under 0.1 µM.

Question: What does the source list for `[2H]C([2H])([2H])C(NC(=O)c1cccc(-c2cc3c(C(=O)NC)c(-c4ccc(F)cc4)oc3nc2NCCO)c1)(C([2H])([2H])[2H])C([2H])([2H])[2H]` [Compound 42003]?
Answer: EC50 ([1]; read-out: EC50 1b (class)): < 0.1 µM; EC50 ([1]; read-out: EC50 (uM) 1b): 0.0144 µM

Question: With `CNC(=O)c1c(-c2ccc(F)cc2)oc2cc(N(CCO)S(C)(=O)=O)c(C3CC3)cc12` [HCV-796] as the compound, how does the hepatic toxicity (HCV; extended dosing of the combination regimens) read?
Answer: The hepatic toxicity was “hepatic toxicity observed”.

Question: And the “HCV RNA levels in patients” value (HCV; patients, single agent transient, more robust with interferon and ribavirin)?
Answer: The value was “reduce HCV RNA levels”.
